We go through six molecules from patent publication US20240360137A1 (Novartis AG, priority 2023, published 2024).

Data set [1] can be described thus: PK analysis of plasma in OVCAR3 xenograft study. The note with it: 60 mg/kg BID oral, compared to Compound 1 and Compound 2 at 30 mg/kg BID. The data set is classed as in vivo, NSG mice. The method, then: (§1) The Cyclin E amplified ovarian cancer cell line OVCAR3 was tested to be free of Mycoplasma and murine viruses using the IDEXX Impact 8 panel. Cells were cultured in RPMI 1640 media supplemented with 20% FBS for fewer than 5 passages after initial thawing and prior to cell implantation into immunodeficient mice. Cells were harvested and resuspended in sterile PBS containing 50% Matrigel. Ten million viable cells were injected at a volume of 0.2 ml per mouse into the flank of immunocompromised NSG mice (1 implant per animal). When tumors reached a mean volume of 200-300 mm^3, mice were randomized and treatments were initiated. Compounds were formulated in 10% HPBCD (hydroxypropyl beta cyclodextrin) and administered orally, twice a day, in a volume of 10 ml/kg. The dosing volume was adjusted based on individual mouse body weight on the day of dosing. Pharmacodynamic markers were evaluated on day 3.
For determination of compound plasma concentrations, serial blood collections were performed at designated timepoints after dosing. Blood was collected in EDTA-lined tubes and placed on wet ice. Within 30 minutes of collection, blood was centrifuged, and the plasma supernatants were aliquoted and stored at −20 C until analyzed. […] CDK2 inhibitor concentrations were measured by LC-MS/MS analysis on API 4500, API 5500+, or Sciex 7500 instruments. […]

Data set [2] concerns RB phosphorylation (Ser 807/811) in OVCAR3 xenograft tumors. Kind of data set: In vivo pharmacodynamic assessment in Cyclin E amplified OVCAR3 xenograft model (RB phosphorylation by MSD). To be noted: Mus musculus, 3 days, 1 hour after the last dose; for inhibition at 30 mg/kg: OVCAR-3, 30 mg/kg twice daily (BID) oral. Also noted: species or system NSG mice.
Description: Cyclin-dependent kinase 2 (CDK2) is a member of the protein kinase family. It plays an important role in regulating various events of the eukaryotic cell division cycle. CDK2 is involved in the inactivation of the retinoblastoma protein (RB) by phosphorylation which then allows for the G1 to S phase transition of the cell cycle. Overexpression of cyclin E, the obligate binding partner of CDK2, can cause abnormal regulation of the cell cycle, which is directly associated with hyperproliferation of cancer cells. Therefore, CDK2 is regarded as a potentially impactful therapeutic target for cancer treatment. The purpose of these studies was to evaluate the PK/PD relationship of CDK2 inhibitors in Cyclin E amplified cancer cell lines in vivo in immunodeficient mice. Plasma and tumor tissues were collected for PK analysis and PD assays (read out of RB phosphorylation inhibition) after 3 days of dosing of the CDK2 inhibitor.
as §1
For terminal PD biomarker analysis, mice were euthanized following 3 days of treatment (1 hour post 5th dose). […] RB phosphorylation levels of the resulting tumor protein lysates were then determined by MSD. […] Values were calculated and normalized to the untreated controls. […]

Another data set concerns the target CDK1/CyclinB1 (Homo sapiens, UniProt P06493). The data set is described as follows: CDKi biochemical assay (TR-FRET, phosphorylation of S780 on RB1 peptide). The note with it: CDK1/CyclinB1 10 pM, 1 mM ATP, 60 min at 25° C. The procedure, abridged: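 CDK1/CyclinB1 (10 pM, Avi-tagged, insect-cell expressed) phosphorylated S780 of His-MBP-RB1[773-924] (200 nM) with 1 mM ATP in HEPES pH 7.5, 10 mM MgCl2, 1 mM DTT, 60 min at 25 °C. After EDTA quench, TR-FRET detection (Eu anti-pRB S780, SA-APC) for 3 h; apparent IC50 from percent activity versus log concentration.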
On the technique in general: In TR-FRET formats the signal depends on donor and acceptor labels being close together.

Another data set addresses CDK6/cyclinD3 (Homo sapiens, UniProt Q00534). The description is as above. To be noted: CDK6/cyclinD3 10 pM, 1 mM ATP, 60 min at 25° C. The procedure, abridged: (§2)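 Avi-tagged, biotinylated CDK4/cyclinD1 (20 pM) or CDK6/cyclinD3 (10 pM) phosphorylates 200 nM His-MBP-RB1[773-924] at S780 with 1 mM ATP in HEPES pH 7.5/MgCl2, 60 min, 25° C. After EDTA quench, Eu anti-pRB(S780)/SA-APC TR-FRET is read after 3 h. Apparent IC50 comes from % activity versus log concentration.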

The target of another data set is CDK4/cyclinD1 (Homo sapiens, UniProt P11802). The description is as above. The note with it: CDK4/cyclinD1 20 pM, 1 mM ATP, 60 min at 25° C. The method, boiled down:
as §2

The target of the next data set is CDK2/CyclinE1 (Homo sapiens, UniProt P24941). The description is as above. To be noted: CDK2/CyclinE1 100 pM, 1 mM ATP, 60 min at 25° C. The method, boiled down:
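CDK2/CyclinE1 (Avi-tag, 100 pM; CDK2 E. coli-expressed) phosphorylated His-MBP-RB1[773-924] (200 nM) at S780 with 1 mM ATP in HEPES pH 7.5/MgCl2/DTT, 60 min at 25° C. After EDTA quench, TR-FRET detection ran 3 h (Eu anti-p-RB S780, SA-APC). Apparent IC50 came from percent activity versus log concentration.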

Each structure is given as a SMILES string. pIC50: −log10 of the molar value.

Usually inhibition stands for the share of the control response that was lost under treatment. Higher therefore signals a response far below the control. On to `CS(=O)(=O)N1CC[C@H](Nc2ncc3c(n2)N([C@@H]2CCC[C@@H](O)C2)C(=O)C32CC2)[C@H](F)C1` [Compound 3, reference compound], for which the exposure result in data set [1] was “lower exposure”. In addition, in data set [2] (OVCAR-3, 60 mg/kg twice daily (BID) oral), the inhibition at 60 mg/kg was roughly 50%.
`CCOc1n[nH]cc1Nc1ncc2c(n1)N([C@@H]1CCC[C@@H](O)C1)C(=O)C21CC1` [Compound 2] had an inhibition at 30 mg/kg in data set [2] of roughly 80%.
Molecule `COc1n[nH]cc1Nc1ncc2c(n1)N([C@@H]1CCC[C@@H](O)C1)C(=O)C21CC1` [Compound 1] came in with an inhibition at 30 mg/kg in data set [2] of roughly 80%.
In general, pIC50 refers to the IC50 on a negative log10 scale, so that one unit is a factor of ten. A lower pIC50 goes with a high IC50. As to `Cn1cc(Nc2ncc3c(n2)N([C@@H]2CCC[C@@H](O)C2)C(=O)C32CC2)cn1` [Example 1, 7′-((1R,3R)-3-hydroxycyclohexyl)-2′-((1-methyl-1H-pyrazol-4-yl)amino)spiro[cyclopropane-1,5′-pyrrolo[2,3-d]pyrimidin]-6′(7′H)-one], the pIC50 against CDK1/CyclinB1 is 5.81; on CDK6/cyclinD3 it was 6.22; at CDK4/cyclinD1, 6.40; on CDK2/CyclinE1, 7.42.
The corresponding values for `O=C1N([C@@H]2CCC[C@@H](O)C2)c2nc(Nc3c[nH]nc3O[C@H]3COC[C@H]3F)ncc2C12CC2` [Example 27, 2′-((3-(((3S,4R)-4-fluorotetrahydrofuran-3-yl)oxy)-1H-pyrazol-4-yl)amino)-7′-((1R,3R)-3-hydroxycyclohexyl)spiro[cyclopropane-1,5′-pyrrolo[2,3-d]pyrimidin]-6′(7′H)-one] are 5.72, 5.50, 5.89 and 7.96.
The corresponding values for `O=C1N([C@@H]2CCC[C@@H](O)C2)c2nc(Nc3c[nH]nc3-c3ccccn3)ncc2C12CC2` [Example 60, 7′-((1R,3R)-3-hydroxycyclohexyl)-2′-((3-(pyridin-2-yl)-1H-pyrazol-4-yl)amino)spiro[cyclopropane-1,5′-pyrrolo[2,3-d]pyrimidin]-6′(7′H)-one] are no more than 5.00, no more than 5.00, no more than 5.00 and 6.79.
